The record followed here is US20130274196A1, “METHOD FOR TREATMENT OF INFLAMMATORY DISEASE AND DISORDER” (HEALOR LTD., priority 2010, published 2013).

Entries after “also recorded” stand apart in the source; their conditions may differ. The star is where a group is joined. Myristoyl = CCCCCCCCCCCCCC(=O)*

One assay deals with splenocytes. Briefly: Cytokine secretion in LPS stimulated splenocytes treated with PKCδ activator. Format: cell-based. Here is the method: (§1) PKCδ activators were also shown to have an anti-inflammatory effect on keratinocytes and splenocytes. Keratinocytes were derived from newborn BALB/C mice skin. The cells were incubated for 5 days in 24 wells plate. Cells were then incubated with PBS −/− as control or stimulated by LPS or TNFα. The PKCδ […] DAP-1 (SEQ ID NO: 34) was added. Medium containing secreted cytokines was collected after 48 hr and analyzed using ELISA. FIG. 43 is a tabular summary showing cytokine secretion in splenocytes stimulated with LPS. FIG. 44 is a tabular summary of cytokine secretion in keratinocytes stimulated by TNFα.

Assay [1] has as its system keratinocytes. The assay is described as follows: Cytokine secretion in stimulated keratinocytes treated with PKCδ activator (ELISA). The class given is cell-based, BALB/C mice. Conditions: stimulated by LPS or TNFα, 48 hr. Here is the method:
as §1
(In general: ELISA stands for enzyme-linked immunosorbent assay.)

Assay [2] deals with histamine induced pruritus. The assay is described as follows: Histamine prick test model of pruritus. The class given is in vivo, healthy volunteers. Conditions: for Pruritus score: scale 0-4, individual subject. Here is the method:
Forearms of individual subjects were injected with histamine solution and placebo. The formulation of Example 4 was topically applied with MPDY-1 at various concentrations and pruritus was assessed over a time course as shown in FIGS. 39-42.
This test was performed by placing a drop of a solution containing a possible allergen on the skin, and a series of scratches or needle pricks allow the solution to enter the skin. The extract enters into the outer layer of the skin (epidermis) using a fine needle (such as a. 26G disposable needle). This testing is not painful, and generally there is no bleeding involved since the needle only scratches the surface of the skin. If the skin develops a red, raised itchy area (called a wheal), it is as a result of allergic reaction to that allergen. This is called a positive reaction. A drop of extract is introduced through a fine needle (such as a No. 26 disposable needle). The test causes no discomfort and minimal trauma so that controls and negative test show only the site of the prick; if anything.
26G needles were utilized to introduce histamine stock (Histatrol Positive Control Histamine, 1 mg/ml, code #HIST14999V, Trupharm). The test was conducted on healthy volunteers in a double-blind, randomized test. The formulations were applied on the forearms. Three treatment areas were chosen and marked (the surface of the forearm from the elbow to the wrist was divided transversely into proximal, middle and distal thirds); the areas were pricked prior the below treatments.
An area was treated with the active formulation in a double-blind manner, for 10 minutes—marked as A.
An area was treated with the Placebo in a double-blind manner, for 10 minutes—marked as C.
A color photograph was taken at time zero (T0), after 10, 20, 30 minutes.
Pruritus questionnaire was answered by the subjects 5 and 15 minutes after treatment.
Subjects were provided with pruritus sensation forms and asked to indicate the level of pruritus sensed from 0 (no response) to 4 (uncontrollable pruritus) at different time intervals.

The test system of assay [3] is keratinocytes. Briefly: Cytokine secretion in LPS, TNFα or IL-17 activated keratinocytes treated with peptide PKCα inhibitors (ELISA). Format: cell-based, BALB/C mice. Here is the method: To determine their effects, keratinocytes were derived from newborn BALB/C mice skin. The cells were incubated for 5 days in 24 wells plate. Cells were then incubated with PBS −/− as control or stimulated by LPS, TNFα, or IL-17. PKCα inhibitors were added as indicated. Medium containing secreted cytokines was collected after 48 hr and analyzed using ELISA. FIG. 50 is a tabular summary of cytokine secretion.

For a further assay, the system named is IKK. Briefly: TNFα induced IKK activation in keratinocytes (phospho-IKKa/b Western blot). Format: cell-based, Murine. The following applies: 1 hour pretreatment, TNFα 35 ng/ml 15 minutes. As to the method: Murine primary keratinocytes were grown for 4 days to full confluence in Low Ca^+2 MEM. Cells were pretreated with designated concentration of MPDY-1 as described in the figure for 1 hour, prior to TNFα induction. Following MPDY-1 pretreatment, cells were incubated with TNFα 35 ng/ml for 15 minutes. Reaction was stopped by adding ice-cold dPBS−/− and keratinocytes were homogenized in RIPA buffer. Samples were subjected to SDS PAGE Western Blot analysis, utilizing phospho-IKKa/b (Ser176/180 antibody).
(In general: In western blotting, separated proteins are transferred to a membrane and probed.)

Another assay relates to macrophages. Briefly: Macrophage infiltration in skin wound (Iba-1 staining). Format: in vivo, C57BL/6J mouse. The following applies: daily treatment, five days post-wounding. Here is the method: The effect of MPDY-1 on macrophage infiltration was also shown by Iba-1 staining. Iba-1 is a general marker for macrophages. […] As above, a two-cm longitudinal incision was done on the upper back of a C57BL/6J mouse. Following wounding, a sterile pad was sutured to the mouse's skin. Animals were treated daily with MPDY-1 (n=6). Five days post-wounding, when inflammatory phase reaches its peak, the mice were sacrificed, skin tissues were embedded in paraffin and immunohistochemical staining was performed utilizing anti-Iba-1 antibodies.

The next assay has as its system EAE mice. Briefly: Experimental allergic encephalomyelitis (EAE), MOG35-55/CFA immunized mice. The class given is in vivo, C57BL/6J mice. The following applies: for Score on day 18 / Score on day 29 / Score on day 37: EAE scale 0-6; for EAE score on the initial day: scale 0-6.
Assay [4] concerns STZ-induced diabetic C57BL/6J mice. The assay is described as follows: Wound healing in STZ-induced diabetic mice. Format: in vivo. As to the method: Full thickness skin incisions (20 mm) were performed on the upper back of anesthetized streptozocin (STZ)-injected (175 mg/kg body weight) diabetic, citrate buffer injected (6 mice/group) non-diabetic, and non-injected (6 mice/group), C57BL/6J mice. Periodical blood glucose monitoring was performed by measuring glucose levels from tail vein after STZ injection. […] Following incision, STZ-induced diabetic wounds were treated daily by application of PBS (7/6 mice/group), insulin (0.1 units/ml) (6 mice/group), the PKCa inhibitor of SEQ ID NO:6 (1 μg/ml) (7/5 mice/group) or a formulation (herein designated HO/03/03) containing insulin and the N-myristoylated PKCα inhibitor of SEQ ID NO: 6 (7/6 mice/group) directly to the surgical dressing. Biopsies were collected 9 days post-wounding. Wounds were excised from euthanized animals for evaluation of wound-healing parameters by histology and immunohistochemistry.
Wounds were assessed for epidermal closure by Keratin 14 staining. Wounds were considered closed when complete epidermal staining was observed across the wound gap. Dermal contraction was considered when both dermal edges were visible in a fixed field ×100 magnification utilizing H&E staining. Epidermal differentiation was assessed by Keratin 1 staining.
The organization of hypodermis was assessed by the presence (or absence) of hypodermis at both wound edges. Granulation tissue formation was assessed by the presence of fibroblasts and collagen fibers in the wound bed. The wound was considered positive for granulation tissue formation when a continuous layer of granulation tissue was present in the wound gap. In addition, we have defined 3 specific histological parameters characterizing severe inflammation of diabetic wounds: (i) abscess formation at the wounded area, (ii) excessive leukocytosis (>100 cells in a fixed field (×200)) and (iii) high white blood cells (WBC)/red blood cells (RBC) ratio within the blood vessels shown in a fixed field (×200). When at least 2 of these parameters are present at the wound gap, the wound is considered severely inflamed.

Another assay has as its system C57BL mice. Briefly: Incision wounds treated 7 days, severe inflammation incidence (Example 10). The class given is in vivo. Conditions: 1 μM daily for 7 days. As to the method: Wounds were performed on the back of C57BL mice by incision and were treated daily for 7 days with: (i) PBS, control; (ii) 1 μM of the PKCα inhibitor of SEQ ID NO: 6; (iii) 1 μM insulin (Humulin, Eli Lilly, USA); or (iv) a mixture of 1 μM PKCα inhibitor and 1 μM insulin.

The subject of a further assay is activated macrophages. The assay is described as follows: Macrophage activation in skin wound (MAC-2 staining). The class given is in vivo, C57BL/6J mouse. The following applies: daily treatment, 5 days; p(control vs 10 μg)=0.0028. Here is the method: The effect of MPDY-1 on macrophage activation was also shown by MAC-2 staining. MAC-2 is a specific marker for activated macrophages. […] A two-cm longitudinal incision was done as described above. Animals were treated daily with DPBS^−/− (Control) or MPDY-1 in the specified concentrations (n=6). After 5 days immunohistochemical staining was performed utilizing anti-MAC-2 antibodies. Bar […]. (*p(control Vs. MPDY-1 10 μg)=0.0028).

Where [5] appears, read: 9-days post wounding, percent of wounds in group, insulin 0.1 units, HO/02 1 ug/ml.
Setting [6] is: 9-days post wounding, percent of wounds in group, insulin 0.1 units, SEQ ID NO: 6 1 ug/ml.

For “H-His-Phe-Glu-Asp-Trp-Ile-Asp-His-Phe-Glu-Asp-Trp-Ile-Asp-OH (H-HFEDWIDHFEDWID-OH) [DAP-1]”, the “inflammatory cytokine secretion in splenocytes” value in the assay with splenocytes was “significantly decease inflammatory cytokine secretion”. The “inflammatory cytokine secretion in keratinocytes” value with keratinocytes [1] is on record as “significantly decease inflammatory cytokine secretion”.

In the case of “Myristoyl-Phe-Ala-Arg-Lys-Gly-Ala-Leu-Arg-Gln-OH (Myristoyl-FARKGALRQ-OH; SMILES CCCCCCCCCCCCCC(=O)N[C@@H](Cc1ccccc1)C(=O)N[C@@H](C)C(=O)N[C@@H](CCCNC(=N)N)C(=O)N[C@@H](CCCCN)C(=O)NCC(=O)N[C@@H](C)C(=O)N[C@@H](CC(C)C)C(=O)N[C@@H](CCCNC(=N)N)C(=O)N[C@@H](CCC(N)=O)C(=O)O) [MPDY-1]”, the Pruritus score in assay [2] (5 minutes after histamine, MPDY-1 1 μg/ml (A1)) was 3. Moreover, in assay [2] (5 minutes after histamine, MPDY-1 10 μg/ml (A2)), the Pruritus score was found to be 2. The Pruritus score in [2] (15 minutes after histamine, MPDY-1 1 μg/ml (A1)) was found to be 1. The Pruritus score in [2] (15 minutes after histamine, MPDY-1 10 μg/ml (A2)) worked out at 0. Moreover, the “redness, inflammation and pruritus compared with control over the time course” value in assay [2] (topical application) was “significantly attenuated redness, inflammation and pruritus”. The “cytokine secretion from IL-17A activated keratinocytes” value in the assay on keratinocytes [3] (IL-17A activated) is on record as “decrease cytokine secretion”. The “cytokine secretion from LPS and TNFα activated keratinocytes” value in the assay with keratinocytes [3] (LPS and TNFα activated) is given as “decrease cytokine secretion”. In addition, the “cytokine secretion in keratinocytes” value in the assay with keratinocytes [3] (stimulated by LPS, TNFα, or IL-17, medium collected after 48 hr) is “effective in decreasing cytokine secretion”. In the assay with IKK, the “TNFα induced IKK activation in keratinocytes” value is “significantly reduced TNFα induced IKK activation” and the “concentration exhibiting the strongest inhibition of IKK activation (lowest concentration)” value was 0.1 mg/mL. For the same substance, the “macrophage infiltration (Iba-1 positive cells per field)” value in the assay on macrophages is recorded as “dose dependent effect”. Moreover, in the assay with EAE mice (0.1 mg/kg), the “The initial day (of illness signs)” value came to 13 days, the “Score on day 18” value amounted to 2.571, the “Score on day 29” value was 2.000 and the “Score on day 37” value came to 1.500. For the same substance, in the assay on EAE mice (0.1 mg/kg), the “EAE score on the initial day” value is given as 1.000. In addition, in the assay with EAE mice (0.1 mg/kg (0.1 μg/ml)), the “EAE severity / score compared to control group” value was “lower score during most of the experiment days; also recorded: reduced EAE severity” and the “delay of development of EAE clinical conditions compared to control group” value is listed as “two days later than the control group; also recorded: two days delay”. In the assay on EAE mice (1 mg/kg), the “The initial day (of illness signs)” value came to 11 days, the “Score on day 18” value is 3.143, the “Score on day 29” value is on record as 3.286 and the “Score on day 37” value amounted to 3.071. In addition, in the assay on EAE mice (1 mg/kg), the “EAE score on the initial day” value came to 0.214. For the same substance, the “Number of dead mice during 49 days” value in the assay with EAE mice (1 mg/kg i.p. three times a week, n=7) came to 2. In addition, the “average group score at the end of the experiment (day 42)” value in the assay with EAE mice (concentration of 0.1 μg/ml, control group score 2.86) came out at 1.93. In assay [4] (setting [5]), the “Dermal closure (H&E)” value came to 17%, the “Epidermal closure (K14)” value is listed as 17% and the “Epidermal differentiation (Kl)” value is recorded as 17%. Besides, in assay [4] (setting [6]), the Granulation tissue was 50%, the Hypodermis stood at 10% and the Severe inflammation is recorded as 30%. The “overall healing effect in diabetic wounds” value in assay [4] (9 days post-wounding) is reported as “only partial healing effects”. Moreover, the “decrease of severe wound inflammation incidence, as compared to control” value in the assay with C57BL mice was 33.3%. Moreover, the “Incidence of severe inflammation in wound (%)” value in the assay on C57BL mice (PBS control 60) amounted to 40%. In the assay with activated macrophages, the “activation of macrophages (MAC-2 positive cells per field)” value is on record as “significantly inhibited”.
